From PMC7486940, “Pre-symptomatic Caspase-1 inhibitor delays cognitive decline in a mouse model of Alzheimer disease and aging” (Nature Communications, 2020)
“And” between values parts separate entries of the source, which are not always exact repeats. Identical values can stand only once. Like-named read-outs stand apart in the source and are kept apart here. Marks after values point to notes of the source that are not given here.

Assays:
Casp1 = test system: Casp1; design: method as in PMID 30254377; details: in vitro Casp1; cited from earlier work
[1] = VX-765 and VRT-043198 pharmacokinetics (LC-MS/MS) in plasma, whole brain and CSF after a single IP dose of VX-765
Procedure: Plasma, whole brain and CSF concentrations of VX-765 and its active metabolite, VRT-043198, were determined by LC-MS/MS at Paraza Pharma (Montreal, QC, Canada). Fourteen C57BL/6J female mice received a single IP dose of 50 mg · kg^−1 VX-765 and 2 mice per time point were euthanized at 0.25, 0.5, 1, 3, 6, 8 and 24 h post-injection. Mice were isoflurane anesthetized to collect CSF and perform a cardiac puncture followed by whole body perfusion with PBS. Plasma samples were extracted 1:1 in spiking solution and internal standard solution containing 0.1 μM glyburide in acetonitrile. Brain and CSF samples were extracted 1:1 in spiking solution and internal standard solution containing 0.2 μM labetalol in 50:50 methanol:acetonitrile. Samples were centrifuged at 4000 × g for 10 min at 4 °C, the plasma supernatant diluted 1:1 and the brain and CSF supernatant diluted 1:2 in H2O, and 5 μl was injected into a Quantis LC-MS/MS system for analysis.

[2] = cited from earlier work
[3] = design: method as in PMID 30254377; details: 50 mg/kg dose of VX-765, carotid infusion, J20 mice; cited from earlier work
APP23 mice = test system: APP23 mice; design: method as in PMID 16095884; details: 2-month pre-symptomatic treatment, 3-week WO; cited from earlier work
[4] = test system: APP/PS1 mouse model of AD; design: method as in Woodling et al., Brain 2016; details: three month treatment given one month before the appearance of deficits, ref Woodling et al., Brain 2016; cited from earlier work
APP/PS1 = test system: APP/PS1; design: method as in PMID 29191754; details: 1-month pre-treatment, 3-week WO; cited from earlier work
[5] = CSF, 0.50 h after single IP 50 mg/kg VX-765
[6] = CSF, 1 h after single IP 50 mg/kg VX-765
[7] = CSF, 3 h after single IP 50 mg/kg VX-765, some blood contamination during CSF collection
[8] = CSF, 8 h after single IP 50 mg/kg VX-765, some blood contamination during CSF collection
[9] = plasma, 0.25 h after single IP 50 mg/kg VX-765
[10] = plasma, 0.50 h after single IP 50 mg/kg VX-765
[11] = plasma, 1 h after single IP 50 mg/kg VX-765
[12] = plasma, 3 h after single IP 50 mg/kg VX-765
[13] = plasma, 6 h after single IP 50 mg/kg VX-765
[14] = plasma, 8 h after single IP 50 mg/kg VX-765
[15] = plasma, single IP 50 mg/kg VX-765
[16] = whole brain, 0.25 h after single IP 50 mg/kg VX-765
[17] = whole brain, 0.50 h after single IP 50 mg/kg VX-765
[18] = whole brain, 1 h after single IP 50 mg/kg VX-765, NQ = not quantifiable, LLOQ 0.025 μM VX-765, 0.049 μM VRT-043198
[19] = whole brain, single IP 50 mg/kg VX-765

CC(C)(C)[C@H](NC(=O)c1ccc(N)c(Cl)c1)C(=O)N1CCC[C@H]1C(=O)N[C@H](C=O)CC(=O)O [VRT-043198]
IC50 (Casp1): 9.91 nM | CSF concentration, Mouse 2 ([1]; CSF, 0.25 h after single IP 50 mg/kg VX-765): 3.11 µM | CSF concentration, Mean ([1]; CSF, 0.25 h after single IP 50 mg/kg VX-765, n = 2): 42.9 µM | CSF concentration, Mouse 1 ([1]; CSF, 0.25 h after single IP 50 mg/kg VX-765, some blood contamination during CSF collection): 82.6* μM | CSF concentration, Mouse 1 [1, 5]: 0.44 µM | CSF concentration, Mouse 2 [1, 5]: 7.00 µM | CSF concentration, Mean ([1]; CSF, 0.50 h after single IP 50 mg/kg VX-765, n = 2): 3.72 µM | CSF concentration, Mouse 1 [1, 6]: 0.43 µM | CSF concentration, Mouse 2 [1, 6]: 0.58 µM | CSF concentration, Mean ([1]; CSF, 1 h after single IP 50 mg/kg VX-765, n = 2): 0.50 µM | CSF concentration, Mean ([1]; CSF, 3 h after single IP 50 mg/kg VX-765, n = 2): 0.28 µM | CSF concentration, Mouse 1 [1, 7]: 0.42* μM | CSF concentration, Mouse 2 [1, 7]: 0.15* μM | CSF concentration, Mean ([1]; CSF, 6 h after single IP 50 mg/kg VX-765): 0.21 µM | CSF concentration, Mouse 2 ([1]; CSF, 6 h after single IP 50 mg/kg VX-765, some blood contamination during CSF collection): 0.21* μM | CSF concentration, Mean ([1]; CSF, 8 h after single IP 50 mg/kg VX-765, n = 2): 0.36 µM | CSF concentration, Mouse 1 [1, 8]: 0.13* μM | CSF concentration, Mouse 2 [1, 8]: 0.60* μM | MRTinf in CSF, Mean ([1]; CSF, single IP 50 mg/kg VX-765): 48.6 min | MRTinf in CSF, Mouse 1 ([1]; CSF, single IP 50 mg/kg VX-765): 48.6 min | Tmax in CSF, Mean ([1]; CSF, single IP 50 mg/kg VX-765): 22.8 min | Tmax in CSF, Mouse 1 ([1]; CSF, single IP 50 mg/kg VX-765): 15 min | Tmax in CSF, Mouse 2 ([1]; CSF, single IP 50 mg/kg VX-765): 30 min | CSF concentration relative to respective in vitro Casp1 IC50 ([1]; CSF, within 0.25 h post-injection, single IP 50 mg/kg VX-765): 4000 fold | brain concentration relative to respective in vitro Casp1 IC50 ([1]; brain, within 0.25 h post-injection, single IP 50 mg/kg VX-765): 170 fold | plasma concentration, Mouse 1 [1, 9]: 201800 nM | plasma concentration, Mouse 2 [1, 9]: 180400 nM | plasma concentration, Mean ([1]; plasma, 0.25 h after single IP 50 mg/kg VX-765, n = 2): 191100 nM | plasma concentration, Mouse 1 [1, 10]: 338100 nM | plasma concentration, Mouse 2 [1, 10]: 104100 nM | plasma concentration, Mean ([1]; plasma, 0.50 h after single IP 50 mg/kg VX-765, n = 2): 221100 nM | plasma concentration, Mouse 1 [1, 11]: 24400 nM | plasma concentration, Mouse 2 [1, 11]: 51000 nM | plasma concentration, Mean ([1]; plasma, 1 h after single IP 50 mg/kg VX-765, n = 2): 37700 nM | plasma concentration, Mouse 1 [1, 12]: 1160 nM | plasma concentration, Mouse 2 [1, 12]: 780 nM | plasma concentration, Mean ([1]; plasma, 3 h after single IP 50 mg/kg VX-765, n = 2): 970 nM | plasma concentration, Mouse 1 [1, 13]: 460 nM | plasma concentration, Mouse 2 [1, 13]: 300 nM | plasma concentration, Mean ([1]; plasma, 6 h after single IP 50 mg/kg VX-765, n = 2): 380 nM | plasma concentration, Mouse 1 [1, 14]: 350 nM | plasma concentration, Mouse 2 [1, 14]: 240 nM | plasma concentration, Mean ([1]; plasma, 8 h after single IP 50 mg/kg VX-765, n = 2): 300 nM | MRTinf in plasma, Mouse 1 [1, 15]: 40.2 min | MRTinf in plasma, Mouse 2 [1, 15]: 46.8 min | Tmax in plasma, Mouse 1 [1, 15]: 30 min | Tmax in plasma, Mouse 2 [1, 15]: 15 min | plasma concentration relative to respective in vitro Casp1 IC50 ([1]; plasma, within 0.25 h post-injection, single IP 50 mg/kg VX-765): 20,000 fold | Cmax ([1]; read-out: Cmax in CSF, Mean, CSF, single IP 50 mg/kg VX-765): 44800 nM | Cmax ([1]; read-out: Cmax in CSF, Mouse 1, CSF, single IP 50 mg/kg VX-765): 82600 nM | Cmax ([1]; read-out: Cmax in CSF, Mouse 2, CSF, single IP 50 mg/kg VX-765): 7000 nM | Cmax ([1]; read-out: Cmax in brain, Mean, whole brain, single IP 50 mg/kg VX-765): 1700 nM | Cmax ([1]; read-out: Cmax in brain, Mouse 1, whole brain, single IP 50 mg/kg VX-765): 2540 nM | Cmax ([1]; read-out: Cmax in brain, Mouse 2, whole brain, single IP 50 mg/kg VX-765): 850 nM | Cmax ([1]; read-out: Cmax in plasma, Mean, plasma, single IP 50 mg/kg VX-765): 259000 nM | Cmax ([1]; read-out: Cmax in plasma, Mouse 1, plasma, single IP 50 mg/kg VX-765): 338000 nM | Cmax ([1]; read-out: Cmax in plasma, Mouse 2, plasma, single IP 50 mg/kg VX-765): 180000 nM | brain concentration, Mouse 1 [1, 16]: 2540 nM | brain concentration, Mouse 2 [1, 16]: 850 nM | brain concentration, Mean ([1]; whole brain, 0.25 h after single IP 50 mg/kg VX-765, n = 2): 1700 nM | brain concentration, Mouse 1 [1, 17]: 590 nM | brain concentration, Mouse 2 [1, 17]: 650 nM | brain concentration, Mean ([1]; whole brain, 0.50 h after single IP 50 mg/kg VX-765, n = 2): 620 nM | brain concentration, Mean ([1]; whole brain, 1 h after single IP 50 mg/kg VX-765): 240 nM | brain concentration, Mouse 1 [1, 18]: 210 nM | brain concentration, Mouse 2 [1, 18]: 270 nM | brain concentration, Mean ([1]; whole brain, 3 h after single IP 50 mg/kg VX-765): 80 nM | brain concentration, Mouse 1 ([1]; whole brain, 3 h after single IP 50 mg/kg VX-765, NQ = not quantifiable, LLOQ 0.025 μM VX-765, 0.049 μM VRT-043198): 80 nM | Half-life (t1/2) in brain, Mouse 1 [1, 19]: 59.4 min | MRTinf in brain, Mean [1, 19]: 52.2 min | MRTinf in brain, Mouse 1 [1, 19]: 58.8 min | MRTinf in brain, Mouse 2 [1, 19]: 45.6 min | Tmax in brain, Mean [1, 19]: 15 min | Tmax in brain, Mouse 1 [1, 19]: 15 min | Tmax in brain, Mouse 2 [1, 19]: 15 min | Half-life (t1/2) in brain, Mean ([1]; whole brain, single IP 50 mg/kg VX-765, 50 mg/kg): 60 min and 59.4 min | in vitro half-life (t1/2) [2]: ~180 min | concentration in the J20 brain [3]: 2000 to 5000 nM

COc1ccc2c3c1O[C@H]1C[C@@H](O)C=C[C@@]31CCN(C)C2 [galantamine]
Morris water maze acquisition and spatial memory (APP23 mice): improved acquisition and spatial memory in the Morris water maze

CC(C)Cc1ccc(C(C)C(=O)O)cc1 (stereo not shown) [ibuprofen]
cognitive impairment on NOR [4]: prevention of cognitive impairment

CC12CC3CC(C)(C1)CC(N)(C3)C2 [memantine]
Morris water maze acquisition and spatial memory (APP23 mice): improved acquisition and spatial memory in the Morris water maze

CN1CCN(CCOc2cc(OC3CCOCC3)c3c(Nc4c(Cl)ccc5c4OCO5)ncnc3c2)CC1 [saracatinib]
NOR performance (APP/PS1): continued improved performance in NOR
